Reference: patent US9738634B2, “Heterocyclic amide compound and herbicide” (SYNGENTA PARTICIPATIONS AG, priority 2013, dated 2017)

Key:
Type in all cases: in vivo
wild oat [1] = test: Test Example 4: weedkilling efficacy by foliar treatment; G: wild oat; conditions: treatment dosage 315 g/ha
In short: (§1)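 Seeds are spot-sown into sterilized diluvial soil and covered with about 1.5 cm of soil. After 14 days' greenhouse growth at 25 to 30° C, plants are sprayed on stems and leaves with diluted emulsion at the stated g/ha rate, then scored at 3 weeks.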

catchweed [2] = test: Test Example 3: weedkilling efficacy through soil treatment; O: catchweed; conditions: treatment dosage 315 g/ha
In short: (§2)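 Crop and weed responses were judged three weeks after a uniform surface spray of the water-diluted emulsion at the given g/ha rate. Seeds sat beneath about 1.5 cm of sterilized diluvial soil, and boxes stood in a greenhouse at 25 to 30° C.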

catchweed [3] = test: Test Example 4: weedkilling efficacy by foliar treatment; O: catchweed; conditions: treatment dosage 315 g/ha
In short: as §1

barnyard grass [4] = test: Test Example 1: weedkilling efficacy, preemergent weed treatment in the submerged state; A: barnyard grass; conditions: treatment dosage 252 g/ha
In short: (§3)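 Pre-emergence paddy test: weed seeds sown in submerged alluvial soil (4 cm water), 2.5-leaf rice transplanted, water-diluted emulsion applied to water surface at sowing at stated g/ha. Scored at 3 weeks, greenhouse 25–30 °C.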

birds-eye speedwell [5] = test: Test Example 3: weedkilling efficacy through soil treatment; p: birds-eye speedwell; conditions: treatment dosage 315 g/ha
In short: as §2

redroot pigweed [6] = test: Test Example 3: weedkilling efficacy through soil treatment; L: redroot pigweed; conditions: treatment dosage 315 g/ha
In short: as §2

soybean [7] = test: Test Example 4: foliar treatment, effect on crop; d: soybean; conditions: treatment dosage 315 g/ha
In short: as §1

bulrush [8] = test: Test Example 2: weedkilling efficacy, growth period weed treatment in the submerged state; B: bulrush; conditions: treatment dosage 252 g/ha
In short: (§4)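 Seedlings at 1-2 leaves in 4 cm-deep submerged alluvial soil received emulsion formulations on the water surface, dosed per hectare; effects were judged 3 weeks on.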

transplanted rice = test: Test Example 1: preemergent weed treatment in the submerged state, effect on crop; a: transplanted rice; conditions: treatment dosage 252 g/ha
In short: as §3

oval-leafed pondweed [9] = test: Test Example 1: weedkilling efficacy, preemergent weed treatment in the submerged state; C: oval-leafed pondweed; conditions: treatment dosage 252 g/ha
In short: as §3

Italian ryegrass [10] = test: Test Example 3: weedkilling efficacy through soil treatment; I: Italian ryegrass; conditions: treatment dosage 315 g/ha
In short: as §2

soybean [11] = test: Test Example 3: soil treatment, effect on crop; d: soybean; conditions: treatment dosage 315 g/ha
In short: as §2

green foxtail [12] = test: Test Example 4: weedkilling efficacy by foliar treatment; E: green foxtail; conditions: treatment dosage 315 g/ha
In short: as §1

corn [13] = test: Test Example 4: foliar treatment, effect on crop; c: corn; conditions: treatment dosage 315 g/ha
In short: as §1

crabgrass [14] = test: Test Example 3: weedkilling efficacy through soil treatment; D: crabgrass; conditions: treatment dosage 315 g/ha
In short: as §2

beet [15] = test: Test Example 4: foliar treatment, effect on crop; f: beet; conditions: treatment dosage 315 g/ha
In short: as §1

black-grass [16] = test: Test Example 3: weedkilling efficacy through soil treatment; H: black-grass; conditions: treatment dosage 315 g/ha
In short: as §2

beet [17] = test: Test Example 3: soil treatment, effect on crop; f: beet; conditions: treatment dosage 315 g/ha
In short: as §2

fig-leafed goosefoot [18] = test: Test Example 4: weedkilling efficacy by foliar treatment; M: fig-leafed goosefoot; conditions: treatment dosage 315 g/ha
In short: as §1

directly sown rice [19] = test: Test Example 3: soil treatment, effect on crop; b: directly sown rice; conditions: treatment dosage 315 g/ha
In short: as §2

Indian mallow [20] = test: Test Example 4: weedkilling efficacy by foliar treatment; K: Indian mallow; conditions: treatment dosage 315 g/ha
In short: as §1

corn [21] = test: Test Example 3: soil treatment, effect on crop; c: corn; conditions: treatment dosage 315 g/ha
In short: as §2

barnyard grass [22] = test: Test Example 2: weedkilling efficacy, growth period weed treatment in the submerged state; A: barnyard grass; conditions: treatment dosage 252 g/ha
In short: as §4

black-grass [23] = test: Test Example 4: weedkilling efficacy by foliar treatment; H: black-grass; conditions: treatment dosage 315 g/ha
In short: as §1

green foxtail [24] = test: Test Example 3: weedkilling efficacy through soil treatment; E: green foxtail; conditions: treatment dosage 315 g/ha
In short: as §2

chickweed [25] = test: Test Example 3: weedkilling efficacy through soil treatment; N: chickweed; conditions: treatment dosage 315 g/ha
In short: as §2

wheat [26] = test: Test Example 4: foliar treatment, effect on crop; e: wheat; conditions: treatment dosage 315 g/ha
In short: as §1

directly sown rice [27] = test: Test Example 4: foliar treatment, effect on crop; b: directly sown rice; conditions: treatment dosage 315 g/ha
In short: as §1

chickweed [28] = test: Test Example 4: weedkilling efficacy by foliar treatment; N: chickweed; conditions: treatment dosage 315 g/ha
In short: as §1

redroot pigweed [29] = test: Test Example 4: weedkilling efficacy by foliar treatment; L: redroot pigweed; conditions: treatment dosage 315 g/ha
In short: as §1

crabgrass [30] = test: Test Example 4: weedkilling efficacy by foliar treatment; D: crabgrass; conditions: treatment dosage 315 g/ha
In short: as §1

fig-leafed goosefoot [31] = test: Test Example 3: weedkilling efficacy through soil treatment; M: fig-leafed goosefoot; conditions: treatment dosage 315 g/ha
In short: as §2

Italian ryegrass [32] = test: Test Example 4: weedkilling efficacy by foliar treatment; I: Italian ryegrass; conditions: treatment dosage 315 g/ha
In short: as §1

birds-eye speedwell [33] = test: Test Example 4: weedkilling efficacy by foliar treatment; p: birds-eye speedwell; conditions: treatment dosage 315 g/ha
In short: as §1

wild oat [34] = test: Test Example 3: weedkilling efficacy through soil treatment; G: wild oat; conditions: treatment dosage 315 g/ha
In short: as §2

oval-leafed pondweed [35] = test: Test Example 2: weedkilling efficacy, growth period weed treatment in the submerged state; C: oval-leafed pondweed; conditions: treatment dosage 252 g/ha
In short: as §4

wheat [36] = test: Test Example 3: soil treatment, effect on crop; e: wheat; conditions: treatment dosage 315 g/ha
In short: as §2

bulrush [37] = test: Test Example 1: weedkilling efficacy, preemergent weed treatment in the submerged state; B: bulrush; conditions: treatment dosage 252 g/ha
In short: as §3

Indian mallow [38] = test: Test Example 3: weedkilling efficacy through soil treatment; K: Indian mallow; conditions: treatment dosage 315 g/ha
In short: as §2

SMILES	G (wild oat) weedkilling efficacy grade (wild oat [1])	O (catchweed) weedkilling efficacy grade (catchweed [2])	O (catchweed) weedkilling efficacy grade (catchweed [3])	P (birds-eye speedwell) weedkilling efficacy grade (birds-eye speedwell [5])	L (redroot pigweed) weedkilling efficacy grade (redroot pigweed [6])	d (soybean) effect on crop grade (soybean [7])	I (Italian ryegrass) weedkilling efficacy grade (Italian ryegrass [10])	d (soybean) effect on crop grade (soybean [11])	E (green foxtail) weedkilling efficacy grade (green foxtail [12])	c (corn) effect on crop grade (corn [13])	D (crabgrass) weedkilling efficacy grade (crabgrass [14])	f (beet) effect on crop grade (beet [15])	H (black-grass) weedkilling efficacy grade (black-grass [16])	f (beet) effect on crop grade (beet [17])	M (fig-leafed goosefoot) weedkilling efficacy grade (fig-leafed goosefoot [18])	b (directly sown rice) effect on crop grade (directly sown rice [19])	K (Indian mallow) weedkilling efficacy grade (Indian mallow [20])	c (corn) effect on crop grade (corn [21])	H (black-grass) weedkilling efficacy grade (black-grass [23])	E (green foxtail) weedkilling efficacy grade (green foxtail [24])	further results
CC1=C(c2ccccc2)C(=O)N(C(C)(C)C(=O)Nc2nnc(C(F)(F)F)s2)CO1 [B-1-10]	2 (weed kill ratio 20% or more, less than 40%)	0 (weed kill ratio 5% or less (practically no effect))	2 (weed kill ratio 20% or more, less than 40%)	4 (weed kill ratio 70% or more, less than 90%)	3 (weed kill ratio 40% or more, less than 70%)	2 (weed kill ratio 20% or more, less than 40%)	3 (weed kill ratio 40% or more, less than 70%)	0 (weed kill ratio 5% or less (practically no effect))	5 (weed kill ratio 90% or more, (practically complete withering))	4 (weed kill ratio 70% or more, less than 90%)	5 (weed kill ratio 90% or more, (practically complete withering))	2 (weed kill ratio 20% or more, less than 40%)	5 (weed kill ratio 90% or more, (practically complete withering))	3 (weed kill ratio 40% or more, less than 70%)	3 (weed kill ratio 40% or more, less than 70%)	5 (weed kill ratio 90% or more, (practically complete withering))	4 (weed kill ratio 70% or more, less than 90%)	3 (weed kill ratio 40% or more, less than 70%)	4 (weed kill ratio 70% or more, less than 90%)	5 (weed kill ratio 90% or more, (practically complete withering))	A (barnyard grass) weedkilling efficacy grade (barnyard grass [4]): 5 (weed kill ratio 90% or more, (practically complete withering)); B (bulrush) weedkilling efficacy grade (bulrush [8]): 5 (weed kill ratio 90% or more, (practically complete withering)); a (transplanted rice) effect on crop grade (transplanted rice): 3 (weed kill ratio 40% or more, less than 70%); C (oval-leafed pondweed) weedkilling efficacy grade (oval-leafed pondweed [9]): 5 (weed kill ratio 90% or more, (practically complete withering)); A (barnyard grass) weedkilling efficacy grade (barnyard grass [22]): 4 (weed kill ratio 70% or more, less than 90%); N (chickweed) weedkilling efficacy grade (chickweed [25]): 2 (weed kill ratio 20% or more, less than 40%); e (wheat) effect on crop grade (wheat [26]): 0 (weed kill ratio 5% or less (practically no effect)); b (directly sown rice) effect on crop grade (directly sown rice [27]): 5 (weed kill ratio 90% or more, (practically complete withering)); N (chickweed) weedkilling efficacy grade (chickweed [28]): 2 (weed kill ratio 20% or more, less than 40%); L (redroot pigweed) weedkilling efficacy grade (redroot pigweed [29]): 2 (weed kill ratio 20% or more, less than 40%); D (crabgrass) weedkilling efficacy grade (crabgrass [30]): 5 (weed kill ratio 90% or more, (practically complete withering)); M (fig-leafed goosefoot) weedkilling efficacy grade (fig-leafed goosefoot [31]): 3 (weed kill ratio 40% or more, less than 70%); I (Italian ryegrass) weedkilling efficacy grade (Italian ryegrass [32]): 0 (weed kill ratio 5% or less (practically no effect)); P (birds-eye speedwell) weedkilling efficacy grade (birds-eye speedwell [33]): 4 (weed kill ratio 70% or more, less than 90%); G (wild oat) weedkilling efficacy grade (wild oat [34]): 4 (weed kill ratio 70% or more, less than 90%); C (oval-leafed pondweed) weedkilling efficacy grade (oval-leafed pondweed [35]): 5 (weed kill ratio 90% or more, (practically complete withering)); e (wheat) effect on crop grade (wheat [36]): 0 (weed kill ratio 5% or less (practically no effect)); B (bulrush) weedkilling efficacy grade (bulrush [37]): 5 (weed kill ratio 90% or more, (practically complete withering)); K (Indian mallow) weedkilling efficacy grade (Indian mallow [38]): 3 (weed kill ratio 40% or more, less than 70%)
CC1=C(c2cccnc2F)C(=O)N(C(C)(C)C(=O)Nc2cc(C(F)(F)F)ccn2)CO1 [B-2-17, 2-[5-(2-fluoropyridin-3-yl)-6-methyl-4-oxo-2H-1,3-oxazin-3(4H)-yl]-2-methyl-N-[4-(trifluoromethyl)pyridin-2-yl] propionamide]	4 (weed kill ratio 70% or more, less than 90%)	1 (weed kill ratio 5% or more, less than 20%)	0 (weed kill ratio 5% or less (practically no effect))	5 (weed kill ratio 90% or more, (practically complete withering))	2 (weed kill ratio 20% or more, less than 40%)	0 (weed kill ratio 5% or less (practically no effect))	5 (weed kill ratio 90% or more, (practically complete withering))	2 (weed kill ratio 20% or more, less than 40%)	5 (weed kill ratio 90% or more, (practically complete withering))	3 (weed kill ratio 40% or more, less than 70%)	5 (weed kill ratio 90% or more, (practically complete withering))	2 (weed kill ratio 20% or more, less than 40%)	5 (weed kill ratio 90% or more, (practically complete withering))	0 (weed kill ratio 5% or less (practically no effect))	2 (weed kill ratio 20% or more, less than 40%)	4 (weed kill ratio 70% or more, less than 90%)	1 (weed kill ratio 5% or more, less than 20%)	2 (weed kill ratio 20% or more, less than 40%)	4 (weed kill ratio 70% or more, less than 90%)	5 (weed kill ratio 90% or more, (practically complete withering))	N (chickweed) weedkilling efficacy grade (chickweed [25]): 3 (weed kill ratio 40% or more, less than 70%); e (wheat) effect on crop grade (wheat [26]): 0 (weed kill ratio 5% or less (practically no effect)); b (directly sown rice) effect on crop grade (directly sown rice [27]): 5 (weed kill ratio 90% or more, (practically complete withering)); N (chickweed) weedkilling efficacy grade (chickweed [28]): 2 (weed kill ratio 20% or more, less than 40%); L (redroot pigweed) weedkilling efficacy grade (redroot pigweed [29]): 3 (weed kill ratio 40% or more, less than 70%); D (crabgrass) weedkilling efficacy grade (crabgrass [30]): 5 (weed kill ratio 90% or more, (practically complete withering)); M (fig-leafed goosefoot) weedkilling efficacy grade (fig-leafed goosefoot [31]): 3 (weed kill ratio 40% or more, less than 70%); I (Italian ryegrass) weedkilling efficacy grade (Italian ryegrass [32]): 5 (weed kill ratio 90% or more, (practically complete withering)); P (birds-eye speedwell) weedkilling efficacy grade (birds-eye speedwell [33]): 2 (weed kill ratio 20% or more, less than 40%); G (wild oat) weedkilling efficacy grade (wild oat [34]): 5 (weed kill ratio 90% or more, (practically complete withering)); e (wheat) effect on crop grade (wheat [36]): 1 (weed kill ratio 5% or more, less than 20%); K (Indian mallow) weedkilling efficacy grade (Indian mallow [38]): 2 (weed kill ratio 20% or more, less than 40%)
